Several values for one entry are separate records, joined by “and”; a condition that tells them apart may be missing. Identical values can stand only once. Blank lines part the entries; values can stand above or below the molecule they belong to.
Legend:
[1] = test system: granulation tissue formation caused by implantation of cotton pellets; assay: Granuloma formation test (local cotton pellet granuloma assay); format: in vivo, rat; settings: Table III
Method: The test compound was dissolved in acetone and aliquots of varying concentrations were injected into cotton pellets. The pellets were dried and then one pellet was implanted beneath the skin of each test rat. Six days later, the animals were sacrificed and the granulation tissue (granuloma) which formed in and around the implanted pellet was removed, dried and weighed. In addition, the thymi and adrenals were removed and weighed.

blanching in humans = assay: McKenzie-type human blanching studies; format: in vivo; settings: forearm, 6 hours occlusion; for blanching: 0.03 to 0.0003 M, 50 microliter, read 1 to 5 hours after removal; for concentration causing approximately the same degree of blanching: direct comparison
Method: McKenzie-type human blanching studies were undertaken to study the blanching effects of a representative test compound of the invention, chloromethyl 17α-ethoxycarbonyloxy-11β-hydroxyandrost-4-en-3-one-17β-carboxylate.
The test compound was dissolved in ethanol/isopropyl myristate (90/10 or 70/30) at 0.03, 0.01, 0.003, 0.001 and 0.0003 M concentrations. 50 Microliter aliquots of each solution were applied to separate gauze portions of a bandage of the type commonly used for allergy testing and the bandage was applied to the forearm. After 6 hours of occlusion, the bandage was removed.

thymus weight in rats = assay: Thymus involution test (topically administered steroids, thymus weight in rats); settings: for Total Weight per Rat, % Gain ± SD / Total Weight per Rat, Final / mg Thymus ± SD / 100 g Rat: 0.75 μmol topical on ear, after 24 hours
Method: The test animals were female Sprague/Dawley rats weighing approximately 40-45 grams each. One side of each ear of each rat was treated with a total of 25 microliters of a solution (ethanol/isopropyl myristate or acetone/isopropyl myristate, 90/10) containing the amount of test compound indicated below. Animals which were treated identically, save for omission of the test compound, served as controls. After 24 hours, all rats were sacrificed and weighed, and their thymi were removed and weighed.
The lower the weight of the thymi, the greater the systemic activity.

[2] = test system: ear swelling induced by croton oil; assay: Ear edema test; format: in vivo, rat; settings: for Ear Weight, % Increase / Ear Weight, % Inhibition / Ear Weight, Inflamed Ear / Ear Weight, Untreated Ear: 6 hr; for Relative organ weight Adrenals / Relative organ weight Thymus: 48 hours
Method: The test animals were Sprague/Dawley rats weighing approximately 150 grams each. In treatment groups, selected amounts of the test compound were dissolved in acetone containing 5% croton oil and 50 microliters of the solution were applied to the inner surface of the right ear of the rats. A control group was identically treated with vehicle only, i.e. 5% croton oil in acetone. Six hours after croton oil challenge, a constant region of each ear was removed by dissection under anesthesia. Then, 48 hours after steroid treatment, the animals were sacrificed and the thymi and adrenals were removed and weighed. The test results showing the inhibitory effect of topically applied steroids on the ear swelling induced by croton oil are summarized in Table II below.

Compound: CCOC(=O)O[C@]1(C(=O)OCCl)CC[C@H]2[C@@H]3CCC4=CC(=O)CC[C@]4(C)[C@H]3[C@@H](O)C[C@@]21C [chloromethyl 17α-ethoxycarbonyloxy-11β-hydroxyandrost-4-en-3-one-17β-carboxylate]
- Body wt. gain ([1]; 0.1 mg/pellet): 36.0 ± 2.8 g
- Granulation tissue Dry wt. ([1]; 0.1 mg/pellet): 34.7 ± 4.3 mg/100 g body wt.
- Granulation tissue Inhibition ([1]; 0.1 mg/pellet): 20.6%
- Relative organ weight Adrenals ([1]; 0.1 mg/pellet): 22.9 ± 2.6 mg/100 g body wt.
- Relative organ weight Adrenals (Decrease %) ([1]; 0.1 mg/pellet): (3.4) %
- Relative organ weight Thymus ([1]; 0.1 mg/pellet): 282 ± 13 mg/100 g body wt.
- Relative organ weight Thymus (Decrease %) ([1]; 0.1 mg/pellet): (13.5) %
- Body wt. gain ([1]; 0.3 mg/pellet): 33.0 ± 1.3 g
- Granulation tissue Dry wt. ([1]; 0.3 mg/pellet): 25.3 ± 2.3 mg/100 g body wt.
- Granulation tissue Inhibition ([1]; 0.3 mg/pellet): 42.1%
- Relative organ weight Adrenals ([1]; 0.3 mg/pellet): 22.8 ± 1.0 mg/100 g body wt.
- Relative organ weight Adrenals (Decrease %) ([1]; 0.3 mg/pellet): (3.8) %
- Relative organ weight Thymus ([1]; 0.3 mg/pellet): 298 ± 16 mg/100 g body wt.
- Relative organ weight Thymus (Decrease %) ([1]; 0.3 mg/pellet): (8.6) %
- Body wt. gain ([1]; 1 mg/pellet): 32.8 ± 0.9 g
- Granulation tissue Dry wt. ([1]; 1 mg/pellet): 14.0 ± 1.8 mg/100 g body wt.
- Granulation tissue Inhibition ([1]; 1 mg/pellet): 68.0%
- Relative organ weight Adrenals ([1]; 1 mg/pellet): 21.8 ± 1.3 mg/100 g body wt.
- Relative organ weight Adrenals (Decrease %) ([1]; 1 mg/pellet): (8.0) %
- Relative organ weight Thymus ([1]; 1 mg/pellet): 304 ± 10 mg/100 g body wt.
- Relative organ weight Thymus (Decrease %) ([1]; 1 mg/pellet): (6.7) %
- Body wt. gain ([1]; 3 mg/pellet): 30.7 ± 1.5 g
- Granulation tissue Dry wt. ([1]; 3 mg/pellet): 18.7 ± 2.3 mg/100 g body wt.
- Granulation tissue Inhibition ([1]; 3 mg/pellet): 57.2%
- Relative organ weight Adrenals ([1]; 3 mg/pellet): 19.6 ± 1.1 mg/100 g body wt.
- Relative organ weight Adrenals (Decrease %) ([1]; 3 mg/pellet): (17.3) %
- Relative organ weight Thymus ([1]; 3 mg/pellet): 278 ± 21 mg/100 g body wt.
- Relative organ weight Thymus (Decrease %) ([1]; 3 mg/pellet): (14.7) %
- blanching (blanching in humans): blanching was observed even at the lowest concentrations
- concentration causing approximately the same degree of blanching (blanching in humans): ~0.001 M
- Total Weight per Rat, % Gain ± SD (thymus weight in rats): 33 ± 6%
- Total Weight per Rat, Final (thymus weight in rats): 60.60 g
- mg Thymus ± SD / 100 g Rat (thymus weight in rats): 309 ± 24 mg/100 g
- Ear Weight, % Increase ([2]; 0.3 mg/kg topical): 23.3 ± 7.2 %
- Ear Weight, % Inhibition ([2]; 0.3 mg/kg topical): 62.1%
- Ear Weight, Inflamed Ear ([2]; 0.3 mg/kg topical): 62.2 ± 3.0 mg
- Ear Weight, Untreated Ear ([2]; 0.3 mg/kg topical): 50.8 ± 2.4 mg
- Relative organ weight Adrenals ([2]; 0.3 mg/kg topical): 26.0 ± 2.5 mg/100 g body wt.
- Relative organ weight Thymus ([2]; 0.3 mg/kg topical): 290 ± 25 mg/100 g body wt.
- Ear Weight, % Increase ([2]; 1 mg/kg topical): 14.0 ± 6.5 %
- Ear Weight, % Inhibition ([2]; 1 mg/kg topical): 77.2%
- Ear Weight, Inflamed Ear ([2]; 1 mg/kg topical): 55.0 ± 2.6 mg
- Ear Weight, Untreated Ear ([2]; 1 mg/kg topical): 48.4 ± 1.0 mg
- Relative organ weight Adrenals ([2]; 1 mg/kg topical): 18.7 ± 1.4 mg/100 g body wt.
- Relative organ weight Thymus ([2]; 1 mg/kg topical): 293 ± 21 mg/100 g body wt.
- Ear Weight, % Increase ([2]; 3 mg/kg topical): 3.7 ± 8.1 %
- Ear Weight, % Inhibition ([2]; 3 mg/kg topical): 94.0%
- Ear Weight, Inflamed Ear ([2]; 3 mg/kg topical): 52.6 ± 1.8 mg
- Ear Weight, Untreated Ear ([2]; 3 mg/kg topical): 51.6 ± 3.2 mg
- Relative organ weight Adrenals ([2]; 3 mg/kg topical): 20.3 ± 0.8 mg/100 g body wt.
- Relative organ weight Thymus ([2]; 3 mg/kg topical): 288 ± 21 mg/100 g body wt.
- swelling of the ear caused by croton oil (in words) ([2]; topical, Table II): substantially inhibited the swelling
- thymus weight as compared to the control (in words) ([2]; topical, Table II): did not significantly decrease the thymus weight as compared to the control

Compound: COC(=O)O[C@]1(C(=O)OCCl)CCC2C3CCC4=CC(=O)CCC4(C)C3C(O)CC21C (stereo partly drawn) [chloromethyl 11β-hydroxy-17α-methoxycarbonyloxyandrost-4-en-3-one-17β-carboxylate]
- Granulation tissue Dry wt. ([1]; 1 mg/pellet): 24.6 ± 2.6 mg/100 g body wt.
- Granulation tissue Inhibition ([1]; 1 mg/pellet): 43.7%
- melting point: 171 to 173 °C

- melting point: 138 to 140 °C
Compound: CC(C)OC(=O)OC1(C(=O)OCCl)[C@H](C)C[C@H]2[C@@H]3CCC4=CC(=O)C=C[C@]4(C)[C@@]3(F)C(=O)C[C@@]21C (stereo partly shown)

- melting point: 133 to 136 °C and 137.5 to 138 °C
Compound: CCOC(=O)O[C@]1(C(=O)OCSC)CCC2C3CCC4=CC(=O)CCC4(C)C3C(O)CC21C (stereo partly shown)

- Total Weight per Rat, % Gain ± SD (thymus weight in rats): 24 ± 7%
- Total Weight per Rat, Final (thymus weight in rats): 61.15 g
- mg Thymus ± SD / 100 g Rat (thymus weight in rats): 274 ± 45 mg/100 g
Compound: C[C@]12CCC(=O)C=C1CC[C@@H]1[C@@H]2[C@@H](O)C[C@@]2(C)[C@H]1CC[C@]2(O)C(=O)CO [Hydrocortisone]
- blanching (blanching in humans): blanching was not observed at concentrations of hydrocortisone below 0.03 M
- concentration causing approximately the same degree of blanching (blanching in humans): ~0.03 M
- decrease in thymus weight compared to the control (in words) (thymus weight in rats; 0.75 μmol topical): causes a significant decrease in thymus weight compared to the control
